Results from patent publication US20100166659A1, “USE OF CYANINE DYES FOR THE DIAGNOSIS OF PROLIFERATIVE DISEASES” (priority 2005, published 2010).
Read-outs that look alike come from different tables or passages of the source.

Legend:
[1] = Determination of fluorescence quantum yield of tricarbocyanine dyes; type: physicochemical; details: 2 μM
Experimental: Compounds 6-4, 5-36, 5-29, 5-41, NIR96009, NIR96005 and ICG (see Table 1) were tested for their fluorescence quantum yields at a concentration of 2 μM in either water or plasma. It is apparent from Table 2 that a substitution in the middle of the tricarbocyanine dye improves fluorescence quantum yield in both media.

tumors = details: cited from earlier work
[2] = remark *see Ref. (Licha et al. 1996), cited from earlier work

CC1(C)C(/C=C/C=C(/C=C/C=C2/N(CCCCS(=O)(=O)O)c3ccc(S(=O)(=O)[O-])cc3C2(C)C)CCS(=O)(=O)O)=[N+](CCCCS(=O)(=O)O)c2ccc(S(=O)(=O)O)cc21 [Compound 5-29]
Fluorescence max. (nm) In plasma [1]: 813 nm
Fluorescence quantum yield (%) In plasma [1]: 9.8%
Fluorescence quantum yield (%) In water [1]: 8.2%

CC(/C=C/C=C1/N(CCS(=O)(=O)O)c2ccc(S(=O)(=O)[O-])cc2C1(C)C)=C\C=C\C1=[N+](CCS(=O)(=O)O)c2ccc(S(=O)(=O)O)cc2C1(C)C [Compound 5-36]
Fluorescence quantum yield (%) In water [1]: 12%

CC1(C)C(/C=C/C2=C(c3ccccc3)C(=C/C=C3/N(CCCCS(=O)(=O)O)c4ccc(S(=O)(=O)[O-])cc4C3(C)C)/CCC2)=[N+](CCCCS(=O)(=O)O)c2ccc(S(=O)(=O)O)cc21 [Compound 5-41]
Fluorescence max. (nm) In plasma [1]: 799 nm
Fluorescence quantum yield (%) In plasma [1]: 19%
Fluorescence quantum yield (%) In water [1]: 10%

CC1(C)C(/C=C/C=C/C=C/C=C2/N(CCCCS(=O)(=O)O)c3ccc4ccccc4c3C2(C)C)=[N+](CCCCS(=O)(=O)[O-])c2ccc3ccccc3c21 [ICG, indocyanine green]
Detection limit, tumor size (tumors; prior-art dye): 1 cm
Fluorescence max. (nm) In plasma [2]: 829 nm
Fluorescence quantum yield (%) In plasma [2]: 3%
Fluorescence quantum yield (%) In water [2]: 1%

CC1(C)C(/C=C/C=C/C=C/C=C2/N(CCCCS(=O)(=O)O)c3ccc(C(=O)O)cc3C2(C)C)=[N+](CCCCS(=O)(=O)[O-])c2ccc(C(=O)O)cc21 [NIR96005]
Fluorescence max. (nm) In plasma [2]: 795 nm
Fluorescence quantum yield (%) In plasma [2]: 7.2%
Fluorescence quantum yield (%) In water [2]: 5.6%

CC1(C)C(/C=C/C=C/C=C/C=C2/N(CCCCS(=O)(=O)O)c3ccc(C(=O)NC(CC(=O)O)C(=O)O)cc3C2(C)C)=[N+](CCCCS(=O)(=O)[O-])c2ccc(C(=O)NC(CC(=O)O)C(=O)O)cc21 (stereo not drawn) [NIR96009]
Fluorescence max. (nm) In plasma [2]: 786 nm
Fluorescence quantum yield (%) In plasma [2]: 7.8%
Fluorescence quantum yield (%) In water [2]: 5.8%

CC(/C=C/C=C1/N(CCS(=O)(=O)O)c2ccc(S(=O)(=O)[O-])cc2C1(C)C)=C\C=C\C1=[N+](CCS(=O)(=O)O)c2ccc(S(=O)(=O)O)cc2C1(C)C [SF64]
Fluorescence max. (nm) In plasma [1]: 787 nm
Fluorescence quantum yield (%) In plasma [1]: 17%
Fluorescence quantum yield (%) In water [1]: 11%

indocyanine green [ICG]
Size of ductal breast carcinomas that could be detected (tumors; DOT, 0.25 mg/kg body weight): ≥ 1 cm
